According to US6455303B1, “Detection of biologically active molecules by use of pre-activated cell-based biosensors in liquid-based separation systems” (Cellectricon AB, priority 1997, dated 2002):

How the values were obtained:
[1] = system: N-methyl-D-aspartate receptor; assay: Capillary electrophoresis-patch clamp detection, NMDA/glycine pre-activated whole-cell biosensor; type: cell-based, rat
Experimental: (§1) Separation of mixtures of glutamate receptor antagonists were performed using cell-based biosensor-compatible buffers. A cell-based biosensor-compatible buffer is a buffer which effectively keeps the cell-based biosensor in a functional and viable condition during the course of the experiment or the analysis procedure. slightly modified standard HEPES-saline buffer containing 140 mM NaCl, 5 mM KCl, 1 mM MgCl2, 1 mM CaCl2, 10 mM glucose and 10 mM HEPES (pH 7.4, NaOH) was used as extracellular and capillary buffer in examples 1 and 2 except in the separation of Mg^2+ where MgCl2 were omitted. As described in the examples, the preferred agonist were only—included in the capillary solution.
The cells used were interneurons from rat olfactory bulb acutely isolated according to the procedures described by Jacobson et al. (see Jacobson, I., Neurosci. Res. Comm. 8:11, 1991, and Jacobson, I., et al., Neurosci. Res. Comm. 10:177, 1992).
Newborn or adult rats (10-200 g) were anaesthetized with halothane (ISC Chemicals Ltd., Avonmouth, England) and decapitated. The olfactory bulbs were dissected and sliced into four pieces and placed in an incubation chamber. The chamber contained proteases from Aspergillus oryzae (2.5 mg/ml) which were dissolved in pre-warmed (32° C.) HEPES-saline buffer (see above). After 25-30 min., the slices were washed with the same buffer solution for 20 min. The solutions were constantly perfused with 95% O2 and 5% CO2 during both the enzymatic treatment arid the washing. […]
(§2) The patch clamp detection was performed in the whole-cell configuration as described by Hamill, et al. (see Hamill, O. P., et al, Pflug. Arch. 391:85, 1981). […] Patch pipettes were fabricated from thick-walled borosilicate glass (code no GC150-10, Clark Electromedical Instruments, Pangboume, Reading, UK). […]
(§3) The signals were recorded with a patch clamp amplifier (Model List L/M EPC-7, List-Electronic, Darmstadt, Germany), digitized (20 kHz, PCM 2 A/D VCR adapter, Medical Systems Corp., NY, USA), and stored on videotape. […]

AMPA receptors = assay: Capillary electrophoresis-patch clamp detection, kainate pre-activated whole-cell biosensor; type: cell-based; details: 100 μM KA in capillary; holding potential −70 mV; interneurons from rat olfactory bulb
Experimental: as §1, with “solution. […]” for “solution.”
as §2, §3

[2] = voltage ramp −80 to +40 mV, NMDA receptor response attenuated by separated Mg^2+

[Mg+2] [Mg^2+]
effect on N-methyl-D-aspartate-activated current responses ([1]; Mg^2+ 2 mM injected, 200 μM NMDA and 20 μM glycine in capillary, holding potential −70 mV, interneurons from rat olfactory bulb): transient Gaussian-distributed attenuation of N-methyl-D-aspartate-activated current responses | current-to-voltage relationship: inward currents at membrane resting potentials [1, 2]: blockade of inward currents at membrane resting potentials | current-to-voltage relationship: outward currents at positive potentials [1, 2]: unaltered outward currents at positive potentials

N#Cc1cc2c(cc1[N+](=O)[O-])=NC(=O)C(=O)N=2 [CNQX, 6-cyano-7-nitroquinoxaline-2,3-dione]
effect on KA-activated current responses (AMPA receptors): transient attenuations of KA-activated current responses

O=C(O)c1nc2cc(Cl)c(Cl)cc2nc1O [DCQXC, 6,7-dichloro-3-hydroxy-2-quinoxaline-carboxylic acid]
effect on KA-activated current responses (AMPA receptors): transient attenuations of KA-activated current responses
